Measured values from patent US20170119835A1, “METHOD OF MAKING AN ADJUNCT TO […] OF RIBOSOMAL FUNCTIONS IN TUMOR CELLS AND PREVENT BODY WEIGHT LOSS DURING CYCLOP[…] THERAPY” (priority 2009, published 2017).

System: S-180 cells
From the text: Healthy adult male mice of BALB/c strain (hereinafter, “animals”) weighing between 18 to 22 g were selected randomly. The animals were divided in to six groups. Each animal was identified by color marking. Each cage was identified by a label according to the group. The label contained the name of experiment, number of mice in that cage, dose (mg/kg) and date of initiation and completion of experiment. The groups received treatments for a period of 15 days. On Day 16, samples of blood were withdrawn, under anesthesia, from orbital sinus of the animals. The samples were collected in tubes containing Heparin as an anticoagulant.
Group I was treated as vehicle control and received vehicle (Corn oil) orally, in equal volume as in treatment groups. Group II received only tumor cells (1×10^6 cells) intra-peritoneally. Group III received tumor cells (1×10^6 cells) and cyclophosphamide (150 mg/kg body weight) intra-peritoneally. Group IV and Group V received Tumor cells and BV-3115 at 100 mg/kg body weight and 250 mg/kg body weight respectively.
A group of male mice approximately 7-8 weeks old and weighing between 18-22 gm were used for this study. Animal room temperature & relative humidity were maintained at 22-30 C. and 30-70% respectively. All mice were given free access to purified water (Purified with Aquaguard) & standard pelleted laboratory animal feed. After acclimation period of 7 days, each animal was weighed and then the animals were randomly selected according to body weights and allocated to the different treatment groups, so that mean body weights of groups were not statistically different before starting the experiment. Tumor implantation with S-180 cells 1×10^6 cells I.P. to all groups except group I (sham control no tumor, no drug).

[1] = all treatment groups, Day 16 blood

Structure (SMILES): O=P1(N(CCCl)CCCl)NCCCO1 (stereo not drawn) [cyclophosphamide]
- mortality (BALB/c mice, 15 days, cyclophosphamide 150 mg/kg i.p., BV-3115 100 and 250 mg/kg, combination with BV-3115 100 mg/kg): No mortality
- body weight compared to Group I (Group III, cyclophosphamide 150 mg/kg i.p., P<0.05): normal weight gain till Day 10, thereafter sudden decrease in weights
- body weight on day 15 (S-180 cells 1×106 I.P., vs sham control / tumor group): reduced the body weight alarmingly lower than sham control
- platelets compared with Group I (vehicle control) (all treatment groups): comparable to Group I
- body weight compared to Group II (tumor cells only) (all treatment groups (III, IV, V and VI)): significant decrease in body weight
- RBC count [1]: increased in varying degrees
- hemoglobin content [1]: increased in varying degrees
- white blood cells compared with Group II (group III (cyclophosphamide) and VI (combination), P<0.05): statistically significant decrease in white blood cells
- clinical signs (other groups: cyclophosphamide 150 mg/kg, BV-3115 100 mg/kg, combination): No clinically abnormal signs
